Test results from PMC7915858, “Complementary Effects of Carbamylated and Citrullinated LL37 in Autoimmunity and Inflammation in Systemic Lupus Erythematosus” (International Journal of Molecular Sciences, 2021).

Assays:
SLE CD4 T-cells = experiment: T-cell proliferation (BrdU incorporation, flow cytometry); assay type: cell-based, human; details: for SLE patients responding by T-cell proliferation: BrdU, positive if SI > 3, carb-LL37 8 of 25, native LL37 17 of 31, cit-LL37 16 of 31 SLE patients
Protocol: PBMCs were purified from EDTA-treated blood, on Ficoll-Hypaque (Pharmacia Fine Chemicals, Uppsala, Sweden) and were incubated (10^5 cells/well) in 96-well-flat-bottom-microplates (BD) in T-cell-medium (RPMI 1640, 10% heat-inactivated human serum, HS, Gibco), 2 mM L-glutamine, 10 U/mL penicillin and 100 μg/mL streptomycin), with/without peptides. We performed assays on fresh cells, within 1-to-3 h from collection or on PBMCs frozen in 90% FCS−10% DMSO, whose viability we assessed by Trypan blue exclusion, with an inverted microscope. Recovery of live cells was between 65 and 85% of the frozen number. At day 3 and 5, BrdU was added (1 μg/mL). BrdU-incorporation was detected by APC-labeled anti-BrdU antibody (BD Pharmingen), after surface staining for CD4, CD3, CD8 and analyzed by flow cytometry (Gallios, BeckmanCoulter, Brea, CA, USA). Internal control for T-cell viability and proliferation was PHA treatment (2 μg/mL). SI for proliferation was calculated by dividing percent of BrdU-staining in the presence of each peptide antigen (LL37, carb-LL37, cit-LL37, LL37 reverse, REV; cit-LL37 reverse, cit-REV; carb-LL37 reverse, carb-REV) by the percent obtained in the untreated cells. SI for proliferation was considered positive when the values of percent of BrdU positive cells was three times higher than the values obtained with the control peptides (SI > 3). Assays were repeated twice with each patient. In rare cases in which background proliferation (culture with REV, cit-REV, carb-REV), exceeded antigen-specific proliferation (that is response to LL37, carb-LL37, cit-LL37), the assay was repeated three times. Concomitant phenotype analysis of LL37-responder T-cells included staining for CD3, CD4, CD8, CXCR5 (CXCR5 was assessed on BrdU/CD3/CD4-positive cells).
Differences between mean values were assessed by Wilcoxon’s matched-pair signed rank test, to compare responses to antigens and control antigens in the same donor. We used Mann-Whitney test for comparison of T-cell and antibody responses between groups of patients and HD. Statistical significance was set at p < 0.05. Correlation analyses were performed by Spearman’s rank-correlation test. Data were analyzed by GraphPad Prism 7.0 or SPSS software.

[1] = tested on: native LL37-P1-specific T-cells (HLA-DRB5*0101 tetramer); experiment: Peptide-MHC-tetramer staining of T-cells after PBMC stimulation; assay type: cell-based, human; details: 6 days stimulation, CD38hi CD4 T-cells; for Control (Ctr-B5) tetramer positive T-cells: Ctr-B5 tetr, lower panels Figure S6; for LL37-specific T-cells (LL37-B5 tetramer positive): LL37-B5 tetr, upper panels Figure S6
Protocol: Peptide-MHC-tetramers were from ImmunAware (Denmark). Staining was performed for 40 min with 1microL of tetramer suspension at 37 °C, followed by staining for CD4 (4 °C, 20 min), without washing. After incubation with anti-CD4 antibody, cells were washed, resuspended in PBS and kept at 4 °C. Before flow cytometry-acquisition, cells were labeled with PercP-conjugated 7-AAD to exclude dead cells. The peptide-MHC-tetramers used in this study are: the HLA-DR15-P1: tetramer of HLA-DRB1*1501 LLGDFFRKSKEKIGK (corresponding to the first aa at the NH2-term of the mature native LL37), (PE-conjugated) and the control peptide-MHC-tetramer called DR15-ctr: tetramer of HLA-DRB1*1501 […]1-169-185 (PE-conjugated). The other couple of peptide-MHC-tetramers used were HLA-DRB5*0101 loaded with the same LL37 epitope as above and the control tetramer HLA-DRB5*0101 loaded with the control epitope PVSKMRMATPLLMQA (CLIP-derived).

[2] = Net charge of the peptides; assay type: physicochemical
memory B-cells = experiment: Maturation of purified B-cells into plasma cells, flow cytometry; assay type: cell-based, human; details: 7 days; for Stimulation of B-cells to mature into plasma cells, peptide-DNA complex: peptide premixed with DNA (15 μg/mL), hrIL-2 50 UI/mL; for Plasma cells (CD38highCD27highCD19neg): hrIL-2 50UI/ml
Protocol: PBMCs were isolated by Ficoll-Paque centrifugation (as described above). Total B-cells were isolated by using the Human B-Cell Isolation Kit II, (Miltenyi Biotec, Bergisch Gladbach, Germany), from fresh PBMCs. The purity of B-cells was verified by flow cytometry using the monoclonal anti-human CD19 fluorescein isothiocyanate (FITC). The percentage of memory B-cells was assessed by flow cytometry using monoclonal anti-human CD19 fluorescein, anti-human CD27 allophycocyanin and anti-human CD38 Pacific Blue antibodies (BD Biosciences, San Jose, CA, USA). The majority of B-cells (>80%) were memory cells expressing CD19/CD27 and low CD38 [29].
LL37/cit-LL37/carb-LL37 were each premixed with DNA (15 μg/mL) and added to the B-cell cultures in RMPI 10% FCS, after a 15-min incubation at room temperature. At day 2, hrIL-2 at 50UI/mL was added to the cultures, which were kept in the incubator for 7 days.
Maturation of B-cells into plasma cells was investigated after 7 days culture by flow cytometry (Gallios, BeckmanCoulter, Brea, CA, USA) following surface staining with the following monoclonal antibodies: anti-human CD19 fluorescein-, CD27 allophycocyanin-, CD38 Pacific Blue-conjugated (BD Biosciences, CA, USA). Analysis of the FCS files was performed by FlowJo (BD, San Jose, CA, USA) or by Kaluza (Beckman Coulter, Indianapolis, IN, USA).

pDCs = experiment: IFN-α production by purified pDCs stimulated with peptide-DNA complexes; assay type: cell-based, human; details: 24 h, ELISA; for IFN-α response of pDCs to peptide alone: peptide without DNA
Protocol: Buffy-coats from HD were from Centro Trasfusionale, Policlinico Umberto I, Rome, IT. After separation of mononuclear cells by Ficoll centrifugation, pDCs were purified as described, by using the Diamond Plasmacytoid Dendritic Cell Isolation Kit (Miltenyi Biotec, Bergisch Gladbach, Germany) to obtain 99% purity. Purified pDCs were seeded into 96-well round-bottom plates at 3.5/5 × 10^4 cells per well in 200 μL RPMI 1640 (GIBCO), supplemented with 10% fetal calf serum (FCS), 1% Hepes and 1% sodium pyruvate. LL37, cit-LL37 and carb-LL37 were premixed with total human genomic DNA (extracted from PBMC of HD, see below) (15 μg/mL). After 15 min incubation at room temperature the mix was added to the pDC cultures. IFN-α in supernatants was measured by ELISA (MabTech, Stockholm, Sweden), after 24 h (according to the manufacturer’s instructions).
Human DNA was extracted from PBMCs, as reported and was fragmented by sonication. Five milligrams of DNA in a volume of 300 μL were fragmented using the Sonics Vibra Cell sonicator (Newtown, CT, USA), with the following settings: 2, 4 and 10 sonication cycles (30 s on, 30 s off, in ice) to obtain DNA fragment sizes between 100 and 1000 bp. The resulting size distribution was controlled by 2% agarose gel electrophoresis.

Substance | SLE patients responding by T-cell proliferation (SLE CD4 T-cells) [%] | Control (Ctr-B5) tetramer positive T-cells [1] [%] | LL37-specific T-cells (LL37-B5 tetramer positive) [1] [%] | Net charge [2] | Stimulation of B-cells to mature into plasma cells, peptide-DNA complex (memory B-cells) | IFN-I/IFN-α production by pDCs, peptide-DNA complex (pDCs; peptide premixed with human DNA (15 μg/mL)) | IFN-α response of pDCs to peptide alone (pDCs) | Proliferation of SLE CD4 T-cells (SLE CD4 T-cells; BrdU incorporation, stimulation index, Wilcoxon's test) | BrdU-positive CD3+CD4+ T-cells (SLE CD4 T-cells; BrdU staining, representative zebra plot, Figure S5a) [%] | Correlation of T-cell responses to carb-LL37 and native LL37 (SLE CD4 T-cells; SI, Spearman, Figure 3b) | Correlation of T-cell proliferation with SLEDAI or autoantibodies to LL37 (SLE CD4 T-cells; SI, Spearman, Figure 4a,b) | Antigen efficiency compared to cit-LL37 (SLE CD4 T-cells; SLE cohort analyzed) | Plasma cells (CD38highCD27highCD19neg) (memory B-cells; 10 µM peptide + DNA, Figure S9b) [%] | Plasma cells (CD38highCD27highCD19neg) (memory B-cells; 10 µM peptide alone, Figure S9a) [%] | Plasma cells (CD38highCD27highCD19neg) (memory B-cells; 20 µM peptide + DNA, Figure S9c) [%]
LLGDFFR(cit)KSKEKIGKEFKR(cit)IVQR(cit)IKDFLR(cit)NLVPR(cit)TES [cit-LL37, LL37 citrullinated at all five arginine sites] | 52 | 0.54 | 2.48 | +1 | abolishes the B-cell maturation into plasma cells | did not stimulate any IFN-I production by pDCs | no IFN-α response | – | – | – | – | – | – | – | –
L*LGDFFRK*SK*EK*IGKEFK*RIVQRIK*DFLRNLVPRTES [carb-LL37] | 32 | 0.39 | 6.57 | +1 | maintained LL37 ability to stimulate the B-cells to mature into plasma cells | – | no IFN-α response | significant proliferation of SLE CD4 T-cells, although less efficiently than cit-LL37 | 18.3 | correlated moderately | moderate but significant correlation | less efficient antigen compared to cit-LL37 | 14.73 | 7.27 | 28.09
